These results are taken from paper PMC8799717, “Pharmacological targeting PIKfyve and tubulin as an effective treatment strategy for double-hit lymphoma” (Cell Death Discovery, 2022).

The structures appear in SMILES notation.

Assay in all cases: biochemical
Holding throughout (parameters): KINOMEscan active-site-directed competition binding panel, 468 kinases, percent of DMSO control at 1 uM
Common to all, as to conditions: KINOMEscan binding, percent of DMSO control; read-out: Ctrl%

Experiment [1] concerns the target IRAK3 (Homo sapiens, UniProt Q9Y616).
The target in experiment [2] is DAPK3 (Homo sapiens, UniProt O43293).
Chain of DAPK3 (O43293 whole entry): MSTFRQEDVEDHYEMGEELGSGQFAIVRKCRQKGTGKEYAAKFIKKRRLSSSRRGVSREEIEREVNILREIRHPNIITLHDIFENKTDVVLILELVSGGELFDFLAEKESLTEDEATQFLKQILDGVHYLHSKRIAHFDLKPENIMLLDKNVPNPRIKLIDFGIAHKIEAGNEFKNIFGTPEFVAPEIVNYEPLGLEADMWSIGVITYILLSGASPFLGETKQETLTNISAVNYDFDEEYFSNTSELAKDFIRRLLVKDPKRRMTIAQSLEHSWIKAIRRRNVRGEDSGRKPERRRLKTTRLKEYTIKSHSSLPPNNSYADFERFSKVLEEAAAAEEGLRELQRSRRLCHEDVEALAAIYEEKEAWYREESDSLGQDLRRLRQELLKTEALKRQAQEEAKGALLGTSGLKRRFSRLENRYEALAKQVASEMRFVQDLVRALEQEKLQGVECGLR
For experiment [3], the target named is MAP3K3 (Homo sapiens, UniProt Q99759).
Experiment [4] has as its target T1, ARK5 (Homo sapiens, UniProt O60285).
T1 construct: gene NUAK1

For experiment [5], the target named is TAOK2 (Homo sapiens, UniProt Q9UL54).
Experiment [6] deals with CSNK1G1 (Homo sapiens, UniProt Q9HCP0).
Chain of CSNK1G1 (Q9HCP0 whole entry): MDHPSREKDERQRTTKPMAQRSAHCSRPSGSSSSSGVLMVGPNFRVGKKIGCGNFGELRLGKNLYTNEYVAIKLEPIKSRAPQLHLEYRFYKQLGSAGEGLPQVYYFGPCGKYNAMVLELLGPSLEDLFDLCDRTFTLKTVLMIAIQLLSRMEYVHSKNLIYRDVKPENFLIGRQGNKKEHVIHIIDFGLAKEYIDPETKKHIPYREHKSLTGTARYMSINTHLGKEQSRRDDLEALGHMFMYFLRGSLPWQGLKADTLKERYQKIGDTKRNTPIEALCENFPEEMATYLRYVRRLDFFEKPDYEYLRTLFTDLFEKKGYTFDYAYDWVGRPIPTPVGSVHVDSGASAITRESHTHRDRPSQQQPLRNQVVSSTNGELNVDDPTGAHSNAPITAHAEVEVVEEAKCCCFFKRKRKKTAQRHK
Experiment [7] has as its target PRKCH (Homo sapiens, UniProt P24723).
The target in experiment [8] is IRAK1 (Homo sapiens, UniProt P51617).
Experiment [9] addresses TYRO3 (Homo sapiens, UniProt Q06418).
Experiment [10] deals with KIT(D816H) (Homo sapiens, UniProt P10721, D816H).
Chain of KIT(D816H) (P10721 whole entry D816H): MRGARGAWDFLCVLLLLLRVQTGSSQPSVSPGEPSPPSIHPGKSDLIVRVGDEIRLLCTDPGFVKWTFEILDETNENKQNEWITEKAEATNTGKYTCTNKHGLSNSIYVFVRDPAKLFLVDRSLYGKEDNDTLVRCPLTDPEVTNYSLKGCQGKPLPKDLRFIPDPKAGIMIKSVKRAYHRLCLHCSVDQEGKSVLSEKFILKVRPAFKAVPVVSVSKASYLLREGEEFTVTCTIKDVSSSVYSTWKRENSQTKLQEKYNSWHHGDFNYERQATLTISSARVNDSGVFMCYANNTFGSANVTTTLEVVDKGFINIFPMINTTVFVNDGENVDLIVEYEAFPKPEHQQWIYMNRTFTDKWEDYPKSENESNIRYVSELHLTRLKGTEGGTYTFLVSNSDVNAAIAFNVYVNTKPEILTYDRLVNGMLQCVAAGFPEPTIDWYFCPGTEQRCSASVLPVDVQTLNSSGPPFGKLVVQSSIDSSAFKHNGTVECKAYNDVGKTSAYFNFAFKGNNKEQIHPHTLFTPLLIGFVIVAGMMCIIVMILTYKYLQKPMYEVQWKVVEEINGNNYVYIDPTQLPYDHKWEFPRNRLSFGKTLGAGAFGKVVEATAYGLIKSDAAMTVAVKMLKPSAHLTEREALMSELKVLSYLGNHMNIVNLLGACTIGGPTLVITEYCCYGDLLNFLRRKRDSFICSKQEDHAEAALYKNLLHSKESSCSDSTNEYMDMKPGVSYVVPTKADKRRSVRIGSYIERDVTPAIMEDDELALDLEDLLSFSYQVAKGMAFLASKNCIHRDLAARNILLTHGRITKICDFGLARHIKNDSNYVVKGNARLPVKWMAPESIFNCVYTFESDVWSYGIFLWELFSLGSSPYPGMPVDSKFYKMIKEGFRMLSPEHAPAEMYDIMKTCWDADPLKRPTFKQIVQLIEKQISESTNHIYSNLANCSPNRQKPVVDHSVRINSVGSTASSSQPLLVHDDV
The target of experiment [11] is TXK (Homo sapiens, UniProt P42681).
Experiment [12] addresses T2, SNARK (Homo sapiens, UniProt Q9H093).
T2 construct: gene NUAK2

For experiment [13], the target named is MET(M1250T) (Homo sapiens, UniProt P08581, M1250T).
For experiment [14], the target named is RET(V804L) (Homo sapiens, UniProt P07949, V804L).
In experiment [15] the target is T3, ERK5 (Homo sapiens, UniProt Q13164).
T3 construct: gene MAPK7

The target in experiment [16] is TBK1 (Homo sapiens, UniProt Q9UHD2).
The target in experiment [17] is PRKG1 (Homo sapiens, UniProt Q13976).
Experiment [18] deals with ALK (Homo sapiens, UniProt Q9UM73).
Experiment [19] addresses T4, MST3 (Homo sapiens, UniProt Q9Y6E0).
T4 construct: gene STK24

Experiment [20] deals with T5, DCAMKL3 (Homo sapiens, UniProt Q9C098).
T5 construct: gene DCLK3

For experiment [21], the target named is T6, PIP5K2B (Homo sapiens, UniProt P78356).
T6 construct: gene PIP4K2B

The target of experiment [22] is EPHA2 (Homo sapiens, UniProt P29317).
Chain of EPHA2 (P29317 whole entry): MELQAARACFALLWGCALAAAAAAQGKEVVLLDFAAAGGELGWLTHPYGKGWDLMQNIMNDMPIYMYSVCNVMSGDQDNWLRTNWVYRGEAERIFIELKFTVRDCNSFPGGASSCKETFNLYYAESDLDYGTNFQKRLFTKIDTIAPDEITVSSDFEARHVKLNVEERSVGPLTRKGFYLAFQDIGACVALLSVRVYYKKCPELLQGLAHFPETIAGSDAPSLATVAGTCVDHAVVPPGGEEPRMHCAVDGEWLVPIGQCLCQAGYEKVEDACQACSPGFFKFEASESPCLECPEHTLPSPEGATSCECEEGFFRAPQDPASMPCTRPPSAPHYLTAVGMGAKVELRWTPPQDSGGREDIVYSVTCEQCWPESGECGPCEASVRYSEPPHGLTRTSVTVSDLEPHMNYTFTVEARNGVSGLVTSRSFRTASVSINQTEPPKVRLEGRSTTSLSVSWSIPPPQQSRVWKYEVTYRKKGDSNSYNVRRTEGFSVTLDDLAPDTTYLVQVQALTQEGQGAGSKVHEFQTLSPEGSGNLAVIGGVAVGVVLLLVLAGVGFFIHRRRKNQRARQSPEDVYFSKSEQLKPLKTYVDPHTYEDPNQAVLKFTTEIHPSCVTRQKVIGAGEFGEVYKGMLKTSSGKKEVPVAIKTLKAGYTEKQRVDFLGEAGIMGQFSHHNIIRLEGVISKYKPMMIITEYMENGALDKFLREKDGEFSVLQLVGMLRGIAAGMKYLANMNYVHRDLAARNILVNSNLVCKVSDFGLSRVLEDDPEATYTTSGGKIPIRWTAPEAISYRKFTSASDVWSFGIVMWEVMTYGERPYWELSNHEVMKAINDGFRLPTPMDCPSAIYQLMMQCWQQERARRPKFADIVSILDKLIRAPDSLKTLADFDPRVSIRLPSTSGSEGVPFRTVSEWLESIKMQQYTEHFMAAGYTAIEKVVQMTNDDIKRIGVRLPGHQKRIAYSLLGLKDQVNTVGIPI
The target of experiment [23] is LRRK2(G2019S) (Homo sapiens, UniProt Q5S007, G2019S).
Experiment [24] deals with T7, DRAK2 (Homo sapiens, UniProt O94768).
T7 construct: gene STK17B

Chain of PRKCH (P24723 whole entry): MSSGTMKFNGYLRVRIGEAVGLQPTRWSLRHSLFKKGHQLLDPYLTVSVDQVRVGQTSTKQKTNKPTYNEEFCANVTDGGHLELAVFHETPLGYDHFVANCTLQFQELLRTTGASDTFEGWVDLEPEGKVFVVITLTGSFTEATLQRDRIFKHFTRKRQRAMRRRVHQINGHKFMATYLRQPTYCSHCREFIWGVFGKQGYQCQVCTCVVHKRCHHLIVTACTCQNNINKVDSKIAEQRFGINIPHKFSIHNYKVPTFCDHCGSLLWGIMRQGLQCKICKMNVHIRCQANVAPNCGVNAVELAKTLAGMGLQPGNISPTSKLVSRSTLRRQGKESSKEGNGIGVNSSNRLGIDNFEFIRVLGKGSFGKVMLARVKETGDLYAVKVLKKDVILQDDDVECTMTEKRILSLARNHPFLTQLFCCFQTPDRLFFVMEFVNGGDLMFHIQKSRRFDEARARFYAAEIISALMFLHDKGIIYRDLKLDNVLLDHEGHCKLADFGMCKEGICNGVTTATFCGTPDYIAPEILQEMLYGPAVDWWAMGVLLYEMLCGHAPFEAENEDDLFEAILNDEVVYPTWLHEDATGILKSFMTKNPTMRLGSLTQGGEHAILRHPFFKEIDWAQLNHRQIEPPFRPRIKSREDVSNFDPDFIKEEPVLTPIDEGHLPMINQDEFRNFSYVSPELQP
T2 sequence (Q9H093 whole entry): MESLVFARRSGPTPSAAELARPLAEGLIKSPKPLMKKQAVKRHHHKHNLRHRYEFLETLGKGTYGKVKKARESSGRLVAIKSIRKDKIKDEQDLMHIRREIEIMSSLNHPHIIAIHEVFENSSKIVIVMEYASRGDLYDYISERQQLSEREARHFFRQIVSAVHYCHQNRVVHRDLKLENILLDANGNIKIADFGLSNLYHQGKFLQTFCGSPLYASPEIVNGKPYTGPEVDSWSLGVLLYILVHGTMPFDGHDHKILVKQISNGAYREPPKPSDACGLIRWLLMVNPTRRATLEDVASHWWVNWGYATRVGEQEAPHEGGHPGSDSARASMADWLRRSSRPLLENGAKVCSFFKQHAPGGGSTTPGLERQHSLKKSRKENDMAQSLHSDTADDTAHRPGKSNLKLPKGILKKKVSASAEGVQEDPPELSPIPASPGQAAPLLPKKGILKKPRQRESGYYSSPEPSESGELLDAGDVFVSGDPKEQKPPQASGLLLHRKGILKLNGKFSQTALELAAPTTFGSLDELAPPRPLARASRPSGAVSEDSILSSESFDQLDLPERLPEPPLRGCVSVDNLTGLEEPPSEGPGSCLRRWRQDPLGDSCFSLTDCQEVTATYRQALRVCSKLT
Chain of IRAK3 (Q9Y616 whole entry): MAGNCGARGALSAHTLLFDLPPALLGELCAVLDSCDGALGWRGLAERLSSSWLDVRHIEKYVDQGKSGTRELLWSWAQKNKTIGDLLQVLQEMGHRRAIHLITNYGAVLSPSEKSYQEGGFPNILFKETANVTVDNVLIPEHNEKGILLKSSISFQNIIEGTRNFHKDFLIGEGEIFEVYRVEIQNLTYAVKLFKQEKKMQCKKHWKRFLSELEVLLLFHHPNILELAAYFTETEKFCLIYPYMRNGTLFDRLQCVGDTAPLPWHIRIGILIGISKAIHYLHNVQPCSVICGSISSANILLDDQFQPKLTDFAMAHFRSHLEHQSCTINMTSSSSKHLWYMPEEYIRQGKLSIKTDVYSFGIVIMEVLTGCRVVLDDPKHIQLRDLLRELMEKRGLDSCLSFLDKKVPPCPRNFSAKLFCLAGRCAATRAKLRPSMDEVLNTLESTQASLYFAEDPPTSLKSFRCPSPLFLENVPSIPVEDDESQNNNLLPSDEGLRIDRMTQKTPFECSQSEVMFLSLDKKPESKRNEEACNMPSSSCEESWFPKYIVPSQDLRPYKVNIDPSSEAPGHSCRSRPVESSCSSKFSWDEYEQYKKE

For the compound `Cc1ccc(NC(=O)c2cccc(C(F)(F)F)c2)cc1Nc1cc(-c2cccnc2)nc2[nH]ccc12` [HZX-02-059], the remaining binding at 1 µM came out at 92% in [1]; 96% in experiment [2]; 89% in experiment [3]; 100% in [4]; 98% in [5]; 83% in [6]. Moreover, the remaining binding at 1 µM in experiment [7] worked out at 90%; in experiment [8] it was 100%; in experiment [9] it was 100%; in experiment [10], 100%; in experiment [11], 78%; in [12], 99%. Further, the remaining binding at 1 µM in [13] came out at 100%; in [14], 100%; in experiment [15], 99%; in experiment [16], 100%; in experiment [17] it was 82%; in [18], 100%. Also, the remaining binding at 1 µM came out at 100% in [19]; 81% in experiment [20]; 76% in experiment [21]; 4% in experiment [22]; 92% in experiment [23]; 88% in [24].
